Assay results published in patent publication US20110070215A1 (priority 2009, published 2011).

Tested on: DU-145 cells
Format: cell-based, human

SMILES: C=C1[C@@H](C)[C@H]2[C@H](Cc3ccccc3)NC(=O)[C@]23[C@H](OC(C)=O)/C=C/[C@@](C)(O)C(=O)[C@@H](C)C/C=C/[C@H]3[C@@H]1O [Cytochalasin-D]
- Relative Wound Density at 24 Hours, Mean: 3.3 ± 0.2
- Relative Wound Density at 24 Hours, Percent Relative to Media: 4%
- effect on cell migration: did not migrate
